# Marks after values point to notes of the source that are not given here.
# Tests used:
# Apc [+/−] 1638NCOL cells [1] = assay: Anchorage-independent growth (soft agar colony formation); format: cell-based, mouse; conditions: 100 μM
# From the text: Anchorage-independent growth: The ‘soft’ agar growth assay monitors the ability of cells to form non adherant colonies. Single cells suspended in 0.33% agar are overlaid on a basement matrix. These cultures are maintained for about 10-14 days and resulting colonies are counted.
# (§1) The cell lines were characterized for expression of epithelium specific proteins (cytokeratins), Apc gene product (full length, as opposed to truncated forms which are differentially reactive to carboxyl and amino terminal Apc antibodies), and cytodifferentiation (MUC1, acid mucopolysaccharide, alkaline phosphatase) using standard assays for immunocytochemical analysis. The growth kinetics were determined based on the time-dependent increase in the number of viable cells relative to the initial seeding density. The cell cycle progression and anchorage-independent growth were determined using fluorescence assisted flow cytometry and colony forming assays, respectively, as previously described (4, 7-11). The expression profile of specific gene products (proteins) involved in the regulation of cell cycle progression, apoptosis, and differentiation was also quantified using recently optimized cellular epifluorescence assays (10, 11).
# Apc [+/−] 1638NCOL cells [2] = assay: Flow cytometry-based aneuploid cell cycle progression analysis; set-up: species or system mouse; conditions: for G0/G1:S + G2/M ratio (aneuploid cell cycle progression): mean ± SD, n = 3
# Description: Aneuploidy: Fluorescence assisted cell sorting and flow cytometry of cells stained with DNA binding fluorescent dyes. Diploid and aneuploid cells accumulate as distinct peaks on the DNA histograms obtained from flow cytometric analysis.
# (§2) Differential susceptibility of C57COL (wild type Ape [+/+]), the control cell line, and 1638NCOL (Apc [+/−]) to growth inhibition by mechanistically distinct prototype chemopreventive test compounds was evaluated in a conventional cell survival assay, while the preventive efficacy of the test compounds was evaluated using optimized quantitative flow cytometry-based cell cycle analysis. Optimization of flow cytometry based cell cycle analysis is published (7, 8, 10, 11) and is needed in view of batch-to-batch variations in commercially available fluorescein isothiocyanate-conjugated antibodies.
# as §1
# Apc [+/−] 1638NCOL cells [3] = assay: Dose response in conventional cell survival assay (growth arrest, toxicity); format: cell-based, mouse; set-up: key to Toxicity: +: Toxicity, surviving cell population lower than initial seeding density; conditions: for No effect: 0.01 μM
# Description: as §2
# The dose response and efficacy studies involved treatment of cell cultures with five log μM concentrations of each compound (0.01, 0.1, 1.0, 10.0 and 100.0 μM).
# Apc [+/−] 1638NCOL cells [4] = assay: Cytostatic growth arrest (cell population doubling); format: cell-based, mouse; conditions: for No. of population doublings: mean ± SD, n = 3
# Description: as §2
# (§3) Selective susceptibility of Ape [+/−] 1638NCOL cells to a prototype chemopreventive agent sulindac (SUL) was examined by comparing its effect on Ape [+/+] C57COL and Ape [+/−] 1638NCOL cells. The cytostatic growth arrest response, evidenced by a decrease in cell population doubling, was about 2-3 fold higher in Ape [+/−] cells as compared to that of Ape [+/+] cells (Table 3).
# The dose response and efficacy studies involved treatment of cell cultures with five log μM concentrations of each compound (0.01, 0.1, 1.0, 10.0 and 100.0 μM). […] The cytostatic effect of treatment with high doses (100 μM) was associated with down regulated cell population doubling, altered aneuploid G0/G1: S+G2/M ratio, and decreased number of anchorage independent colonies (Table 4).
# as §1
# C57COL (Apc [+/+]) cells = assay: Cytostatic growth arrest (cell population doubling), control cell line; format: cell-based, mouse
# Description: as §2, §3, §1
Structure (SMILES),Anchorage-independent colonies (Apc [+/−] 1638NCOL cells [1]),Cell cycle phase (Apc [+/−] 1638NCOL cells [2]; 1 μM),G0/G1:S + G2/M ratio (aneuploid cell cycle progression) (Apc [+/−] 1638NCOL cells [2]; 1 μM),Aneuploid G0/G1:S + G2/M ratio (Apc [+/−] 1638NCOL cells [2]; 100 μM),Cell cycle phase (Apc [+/−] 1638NCOL cells [2]; 100 μM),G0/G1:S + G2/M ratio (aneuploid cell cycle progression) (Apc [+/−] 1638NCOL cells [2]; 100 μM),No effect (Apc [+/−] 1638NCOL cells [3]),Growth arrest (%) (Apc [+/−] 1638NCOL cells [3]; 1 μM (Table 8)),Growth arrest (%) (Apc [+/−] 1638NCOL cells [3]; 100 μM),Growth arrest (%) (Apc [+/−] 1638NCOL cells [3]; 100 μM (Table 8)),Growth arrest (%) (Apc [+/−] 1638NCOL cells [3]; 0.1-10 μM),% Change in no. of population doublings versus EtOH control (Apc [+/−] 1638NCOL cells [4]; 1 μM),No. of population doublings (Apc [+/−] 1638NCOL cells [4]; 1 μM),% Change in no. of population doublings versus EtOH control (Apc [+/−] 1638NCOL cells [4]; 100 μM),Cell Population Doubling (Apc [+/−] 1638NCOL cells [4]; 100 μM),No. of population doublings (Apc [+/−] 1638NCOL cells [4]; 100 μM),Cell cycle phase (Apc [+/−] 1638NCOL cells [2]; 10 μM),G0/G1:S + G2/M ratio (aneuploid cell cycle progression) (Apc [+/−] 1638NCOL cells [2]; 10 μM),Growth arrest (%) (Apc [+/−] 1638NCOL cells [3]; 10 μM (Table 8)),Toxicity (Apc [+/−] 1638NCOL cells [3]; 100 μM),further results
"CC1=C(/C=C/C(C)=C\C=C\C(C)=C\C(=O)O)C(C)(C)CCC1 [Agent 9cisRA, 9cis retinoic acid]",4.4 ± 1.2,G1 arrest,13.8 ± 0.5^c,18.5 ± 0.2,G1 arrest,22.1 ± 0.6^c,+ (No effect <20% inhibition of surviving cell population),30%,60%,60%,30%,−32.3%,6.7 ± 0.2,−53.5%,4.6 ± 0.1,4.6 ± 0.1^c,–,–,–,–,–
"CC1=C(CC(=O)O)c2cc(F)ccc2/C1=C\c1ccc([S+](C)[O-])cc1 (stereo not shown) [SUL, Sulindac]",0.5 ± 0.3,–,6.6 ± 0.4^d,13.9 ± 0.5,G1arrest,13.9 ± 0.8^c,+ (No effect <20% inhibition of surviving cell population),30%,70%,70%,30%,−23.2%,7.6 ± 0.3,−61.6%,3.8 ± 0.2,3.8 ± 0.2^c,–,–,–,–,"inhibition at 1 µM (C57COL (Apc [+/+]) cells; Mus musculus, 120 h, SUL 1 μM, day 5): 10.2%; inhibition at 10 µM (C57COL (Apc [+/+]) cells; Mus musculus, 120 h, SUL 10 μM, day 5): 15.4%; inhibition at 100 µM (C57COL (Apc [+/+]) cells; Mus musculus, 120 h, SUL 100 μM, day 5): 71.8%; Cell Population Doubling at Day 5 Post-Seeding (C57COL (Apc [+/+]) cells; SUL 1 μM): 3.5 ± 0.4; Cell Population Doubling at Day 5 Post-Seeding (C57COL (Apc [+/+]) cells; SUL 10 μM): 3.3 ± 0.7; Cell Population Doubling at Day 5 Post-Seeding (C57COL (Apc [+/+]) cells; SUL 100 μM): 1.1 ± 0.5; Cell Population Doubling at Day 5 Post-Seeding (Apc [+/−] 1638NCOL cells [4]; 1638NCOL (Apc [+/−]), SUL 1 μM): 4.8 ± 0.6; Cell Population Doubling at Day 5 Post-Seeding (Apc [+/−] 1638NCOL cells [4]; 1638NCOL (Apc [+/−]), SUL 10 μM): 4.4 ± 0.4; Cell Population Doubling at Day 5 Post-Seeding (Apc [+/−] 1638NCOL cells [4]; 1638NCOL (Apc [+/−]), SUL 100 μM): 2.3 ± 0.3; Cytostatic growth arrest response (decrease in cell population doubling) in Apc [+/−] cells as compared to Apc [+/+] cells (Apc [+/−] 1638NCOL cells [4]; 1638NCOL versus C57COL): 2-3 fold; inhibition at 1 µM (Apc [+/−] 1638NCOL cells [4]; Mus musculus, 120 h, 1638NCOL (Apc [+/−]), SUL 1 μM, day 5): 34.2%; inhibition at 10 µM (Apc [+/−] 1638NCOL cells [4]; Mus musculus, 120 h, 1638NCOL (Apc [+/−]), SUL 10 μM, day 5): 39.7%; inhibition at 100 µM (Apc [+/−] 1638NCOL cells [4]; Mus musculus, 120 h, 1638NCOL (Apc [+/−]), SUL 100 μM, day 5): 68.5%"
"CC/C(=C(\c1ccccc1)c1ccc(OCCN(C)C)cc1)c1ccccc1 [TAM, Tamoxifen]",–,"S,G2M arrest",2.7 ± 0.9^d,–,–,–,+ (No effect <20% inhibition of surviving cell population),20%,–,–,20-30%,−23.2%,7.6 ± 0.4,–,–,–,"S,G2M arrest",1.8 ± 0.8^d,30%,+,% Change in no. of population doublings versus EtOH control (Apc [+/−] 1638NCOL cells [4]; 10 μM): −28.3%; No. of population doublings (Apc [+/−] 1638NCOL cells [4]; 10 μM): 7.1 ± 0.2
"Cc1c(-c2cnccn2)ssc1=S [OLT, Oltipraz]",15.8 ± 1.8,"S,G2M arrest",1.0 ± 0.2^d,7.2 ± 0.1,"S,G2M arrest",1.2 ± 0.1^d,+ (No effect <20% inhibition of surviving cell population),2%,25%,25%,2%,+8.1%,10.7 ± 0.2,−15.1%,8.4 ± 0.4,8.4 ± 0.4,–,–,–,–,–
"NCCCNCCSP(=O)(O)O [AMF, Amifostine]",–,–,9.6 ± 0.7,–,–,–,+ (No effect <20% inhibition of surviving cell population),25%,–,–,25-40%,−17.2%,8.2 ± 0.2,–,–,–,G1 arrest,10.9 ± 0.6^c,40%,+,% Change in no. of population doublings versus EtOH control (Apc [+/−] 1638NCOL cells [4]; 10 μM): −37.4%; No. of population doublings (Apc [+/−] 1638NCOL cells [4]; 10 μM): 6.2 ± 0.3
